Data taken from patent US20070032465A1, “Pharmaceutical composition comprising a p2x7-receptor antagonist and a tumour necrosis factor alpha” (priority 2003, published 2007).

Test system: Streptococcal cell wall (SCW)-induced arthritis in female Lewis rats
Assay: Rat streptococcal cell wall (SCW)-induced arthritis: ankle swelling and von Frey mechanical threshold
Format: in vivo
Conditions: P2X7 antagonist 1 30 mg/kg oral bid, Etanercept 0.5 mg/kg s.c.; for % reduction of AUC (compared to arthritic vehicle control), Ankle swelling: AUC from day -1 to day 6 post-induction; for % reduction of AUC (compared to arthritic vehicle control), Von Frey threshold: von Frey filaments on days -1, 1, 3, 5
From the text: Assessment of Anti-Inflammatory Activity of TNFα Inhibitor/P2X7 Anatagonist Combinations in Rat Streptococcal Cell Wall-Induced Arthritis. ^1 1. Experimental procedure based on that described by Carlson R P, Jacobsen P B; ‘Comparison of adjuvant and streptococcal cell wall-induced arthritis in the rat’ in Morgan D W, Marshall L A, editors; In Vivo Models of Inflammation. Basel: Birkhauser Verlag; 1999.
Streptococcal cell wall (SCW)-induced arthritis was induced in the left ankle of female Lewis rats. Animals were sensitised by intra-articular injection of 5 μg (in 20 μL) SCW (Lee Laboratories) into the left ankle. Ankle swelling was assessed 3 days after injection and non-responders (animals with no apparent ankle swelling) were rejected. Responding animals were randomly allocated to the test groups.
Arthritis was induced 21 days after sensitisation by intravenous (iv) injection of SCW (100 μg in 500 μL saline). Animals were monitored and assessed on a daily basis through to termination 6 days after induction. The rats were housed on sawdust and provided with food and water ad libitum.
In this example the P2X7 antagonist 1, was orally dosed at 30 mg/kg (4 mL/kg, bid). The compound was dosed as a suspension in 1% (w/v) methylcellulose in deionised water and was freshly prepared on a daily basis. Dosing commenced 1 day prior to induction of arthritis and continued through to termination on day 6 post-induction. Etanercept (0.5 mg/kg) was administered by subcutaneous injection (1 mL/kg) 1 day prior to induction of arthritis and then on days 1, 3 and 5 post-induction.
Ankle diameters were measured with vernier callipers on a daily basis from day −1. Mechanical thresholds were assessed using von Frey filaments on days −1, 1, 3 and 5. The filaments were applied in increasing weights to the ankle region on the footpad of both feet. The first filament to induce a withdrawal response was considered to be the threshold.
Effects on ankle swelling and mechanical threshold were calculated on an area under the curve (AUC) basis, as the sum of the differences from individual day −1 values. The size and direction of the interaction was calculated and data analysis performed by ANOVA followed by Dunnett's test on the AUC data (SAS version 8.01).

Compound	% reduction of AUC (compared to arthritic vehicle control), Ankle swelling	% reduction of AUC (compared to arthritic vehicle control), Von Frey threshold
Cc1ccc(C(=O)N2CC3CNCC(C2)O3)cc1NC(=O)CC12CC3CC(CC(C3)C1)C2.Cl [P2X7 antagonist 1, N-[2-Methyl-5-(9-oxa-3,7-diazabicyclo[3.3.1]non-3-ylcarbonyl)phenyl]-tricyclo[3.3.1.1^3,7]decane-1-acetamide, hydrochloride]	28.5 ± 13.5%	21.1 ± 10.9%
Etanercept	44.0 ± 4.7 %	7.4 ± 6.8%
